Measurements: US9604975B2, “Indolyl-pyridone derivatives having checkpoint kinase 1 inhibitory activity” (Vernalis (R&D) Ltd., priority 2009, dated 2017)

Molecular target: T1, CHK1 (Homo sapiens, UniProt O14757)
T1 construct: His; purchased Invitrogen
T1 sequence (O14757 1-476): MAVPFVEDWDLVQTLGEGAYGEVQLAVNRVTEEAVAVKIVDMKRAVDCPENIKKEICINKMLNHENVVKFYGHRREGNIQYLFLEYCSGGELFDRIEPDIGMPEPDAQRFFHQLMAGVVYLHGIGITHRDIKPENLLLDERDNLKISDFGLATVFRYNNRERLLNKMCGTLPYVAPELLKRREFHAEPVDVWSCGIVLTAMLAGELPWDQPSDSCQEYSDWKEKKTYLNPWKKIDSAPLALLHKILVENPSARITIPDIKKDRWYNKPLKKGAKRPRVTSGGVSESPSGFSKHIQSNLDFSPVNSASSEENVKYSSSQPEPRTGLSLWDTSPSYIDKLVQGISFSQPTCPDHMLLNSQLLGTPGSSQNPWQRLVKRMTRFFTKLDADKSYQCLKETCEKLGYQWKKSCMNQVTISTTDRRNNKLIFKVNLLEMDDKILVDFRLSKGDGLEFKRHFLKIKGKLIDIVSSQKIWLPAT
Assay: CHK1 Enzyme Assay (phosphorylation of Chktide peptide, 33P-ATP filter assay)
Type: biochemical
Details: 12.5 nM His-CHK1, 0.01 mM ATP, 40 minutes at 30° C.; read-out: CHK1 Enzyme Activity (IC50 range)
Outline: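 Filter-binding radiometric readout of 33P incorporation into Chktide (14.8 μM), after a 40 min, 30 °C reaction at pH 7.5 (50 mM Hepes-NaOH, 0.1 mg/mL BSA). The reaction contained 12.5 nM His-tagged CHK1, inhibitor and 0.01 mM cold ATP plus labelled ATP.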

Row | Compound | IC50
1 | O=C(Nc1c[nH]c(=O)c(-c2cc3cc(OCCN4CCCCC4)ccc3[nH]2)c1)c1cnn(Cc2ccc(C(F)(F)F)cc2)c1 [Example 121, 1-(4-Trifluoromethyl-benzyl)-1H-pyrazole-4-carboxylic acid {6-oxo-5-[5-(2-piperidin-1-yl-ethoxy)-1H-indol-2-yl]-1,6-dihydro-pyridin-3-yl}-amide] | < 100 nM
2 | Cc1ccc(Cn2cc(C(=O)Nc3c[nH]c(=O)c(-c4cc5cc(OCCCN(C)C)ccc5[nH]4)c3)cn2)cc1 [Example 122, 1-(4-Methyl-benzyl)-1H-pyrazole-4-carboxylic acid {5-[5-(3-dimethylamino-propoxy)-1H-indol-2-yl]-6-oxo-1,6-dihydro-pyridin-3-yl}-amide] | < 100 nM
3 | CCN(CC)CCCOc1ccc2[nH]c(-c3cc(NC(=O)c4cnn(Cc5ccc(C)cc5)c4)c[nH]c3=O)cc2c1 [Example 123, 1-(4-Methyl-benzyl)-1H-pyrazole-4-carboxylic acid {5-[5-(3-diethylamino-propoxy)-1H-indol-2-yl]-6-oxo-1,6-dihydro-pyridin-3-yl}-amide] | < 100 nM
4 | Cc1ccc(Cn2cc(C(=O)Nc3c[nH]c(=O)c(-c4cc5cc(OCCCN6CCN(C)CC6)ccc5[nH]4)c3)cn2)cc1 [Example 124] | < 100 nM
5 | CCN(CC)CCOc1ccc2[nH]c(-c3cc(NC(=O)c4cnn(Cc5ccc(C)cc5)c4)c[nH]c3=O)cc2c1 [Example 125, 1-(4-Methyl-benzyl)-1H-pyrazole-4-carboxylic acid {5-[5-(2-diethylamino-ethoxy)-1H-indol-2-yl]-6-oxo-1,6-dihydro-pyridin-3-yl}-amide] | < 100 nM
6 | Cc1ccc(Cn2cc(C(=O)Nc3c[nH]c(=O)c(-c4cc5cc(OCCN6CCN(C)CC6)ccc5[nH]4)c3)cn2)cc1 [Example 126, 1-(4-Methyl-benzyl)-1H-pyrazole-4-carboxylic acid (5-{5-[2-(4-methyl-piperazin-1-yl)-ethoxy]-1H-indol-2-yl}-6-oxo-1,6-dihydro-pyridin-3-yl)-amide] | < 100 nM
7 | CCc1cccc(Cn2cc(C(=O)Nc3c[nH]c(=O)c(-c4cc5cc(OCCCN6CCN(C)CC6)ccc5[nH]4)c3)cn2)c1 [Example 127, 1-(3-Ethyl-benzyl)-1H-pyrazole-4-carboxylic acid (5-{5-[3-(4-methyl-piperazin-1-yl)-propoxy]-1H-indol-2-yl}-6-oxo-1,6-dihydro-pyridin-3-yl)-amide] | < 100 nM
8 | CCc1cccc(Cn2cc(C(=O)Nc3c[nH]c(=O)c(-c4cc5cc(OCCN(C)C)ccc5[nH]4)c3)cn2)c1 [Example 128, 1-(3-Ethyl-benzyl)-1H-pyrazole-4-carboxylic acid {5-[5-(2-dimethylamino-ethoxy)-1H-indol-2-yl]-6-oxo-1,6-dihydro-pyridin-3-yl}-amide] | < 100 nM
9 | CCc1cccc(Cn2cc(C(=O)Nc3c[nH]c(=O)c(-c4cc5cc(OCCCN(C)C)ccc5[nH]4)c3)cn2)c1 [Example 129, 1-(3-Ethyl-benzyl)-1H-pyrazole-4-carboxylic acid {5-[5-(3-dimethylamino-propoxy)-1H-indol-2-yl]-6-oxo-1,6-dihydro-pyridin-3-yl}-amide] | < 100 nM
10 | CCc1cccc(Cn2cc(C(=O)Nc3c[nH]c(=O)c(-c4cc5cc(OCCN(CC)CC)ccc5[nH]4)c3)cn2)c1 [Example 130, 1-(3-Ethyl-benzyl)-1H-pyrazole-4-carboxylic acid {5-[5-(2-diethylamino-ethoxy)-1H-indol-2-yl]-6-oxo-1,6-dihydro-pyridin-3-yl}-amide] | < 100 nM
11 | Cc1ccc(Cn2cc(C(=O)Nc3c[nH]c(=O)c(-c4cc5cc(OCCN6CC(C)OC(C)C6)ccc5[nH]4)c3)cn2)cc1 (centres unmarked) [Example 131, 1-(4-Methyl-benzyl)-1H-pyrazole-4-carboxylic acid (5-{5-[2-(2,6-dimethyl-morpholin-4-yl)-ethoxy]-1H-indol-2-yl}-6-oxo-1,6-dihydro-pyridin-3-yl)-amide] | < 100 nM
12 | Cc1ccc(Cn2cc(C(=O)Nc3c[nH]c(=O)c(-c4cc5cc(OCCN(C)C)ccc5[nH]4)c3)cn2)cc1 [Example 132, 1-(4-Methyl-benzyl)-1H-pyrazole-4-carboxylic acid {5-[5-(2-dimethylamino-ethoxy)-1H-indol-2-yl]-6-oxo-1,6-dihydro-pyridin-3-yl}-amide] | < 100 nM
13 | CCc1cccc(Cn2cc(C(=O)Nc3c[nH]c(=O)c(-c4cc5cc(OCCN6CCN(C)CC6)ccc5[nH]4)c3)cn2)c1 [Example 133, 1-(3-Ethyl-benzyl)-1H-pyrazole-4-carboxylic acid (5-{5-[2-(4-methyl-piperazin-1-yl)-ethoxy]-1H-indol-2-yl}-6-oxo-1,6-dihydro-pyridin-3-yl)-amide] | < 100 nM
14 | CCc1cccc(Cn2cc(C(=O)Nc3c[nH]c(=O)c(-c4cc5cc(OCCCN6CCCCC6)ccc5[nH]4)c3)cn2)c1 [Example 134, 1-(3-Ethyl-benzyl)-1H-pyrazole-4-carboxylic acid {6-oxo-5-[5-(3-piperidin-1-yl-propoxy)-1H-indol-2-yl]-1,6-dihydro-pyridin-3-yl}-amide] | < 100 nM
15 | CCc1cccc(Cn2cc(C(=O)Nc3c[nH]c(=O)c(-c4cc5cc(OCCN6CCCCC6)ccc5[nH]4)c3)cn2)c1 [Example 135, 1-(3-Ethyl-benzyl)-1H-pyrazole-4-carboxylic acid {6-oxo-5-[5-(2-piperidin-1-yl-ethoxy)-1H-indol-2-yl]-1,6-dihydro-pyridin-3-yl}-amide] | < 100 nM
16 | CCc1cccc(Cn2cc(C(=O)Nc3c[nH]c(=O)c(-c4cc5cc(OCCCN(CC)CC)ccc5[nH]4)c3)cn2)c1 [Example 136, 1-(3-Ethyl-benzyl)-1H-pyrazole-4-carboxylic acid {5-[5-(3-diethylamino-propoxy)-1H-indol-2-yl]-6-oxo-1,6-dihydro-pyridin-3-yl}-amide] | < 100 nM
17 | Cc1ccc(Cn2cc(C(=O)Nc3c[nH]c(=O)c(-c4cc5cc(OCC(C)(C)CN(C)C)ccc5[nH]4)c3)cn2)cc1 [Example 137, 1-(4-Methyl-benzyl)-1H-pyrazole-4-carboxylic acid {5-[5-(3-dimethylamino-2,2-dimethyl-propoxy)-1H-indol-2-yl]-6-oxo-1,6-dihydro-pyridin-3-yl}-amide] | < 100 nM
18 | CCc1cccc(Cn2cc(C(=O)Nc3c[nH]c(=O)c(-c4cc5cc(OCCN6CC(C)OC(C)C6)ccc5[nH]4)c3)cn2)c1 (centres unmarked) [Example 138, 1-(3-Ethyl-benzyl)-1H-pyrazole-4-carboxylic acid (5-{5-[2-(2,6-dimethyl-morpholin-4-yl)-ethoxy]1H-indol-2-yl}-6-oxo-1,6-dihydro-pyridin-3-yl)-amide] | < 100 nM
19 | CCN(CC)CCCOc1ccc2[nH]c(-c3cc(NC(=O)c4cnn(Cc5ccccc5)c4)c[nH]c3=O)cc2c1 [Example 139, 1-Benzyl-1H-pyrazole-4-carboxylic acid {5-[5-(3-diethylamino-propoxy)-1H-indol-2-yl]-6-oxo-1,6-dihydro-pyridin-3-yl}-amide] | < 100 nM
20 | CN1CCN(CCCOc2ccc3[nH]c(-c4cc(NC(=O)c5cnn(Cc6ccccc6)c5)c[nH]c4=O)cc3c2)CC1 [Example 140, 1-Benzyl-1H-pyrazole-4-carboxylic acid {5-[5-[3-(4-methyl-piperazin-1-yl)-propoxy]-1H-indol-2-yl}-6-oxo-1,6-dihydro-pyridin-3-yl)-amide] | < 100 nM
21 | CCN(CC)CCOc1ccc2[nH]c(-c3cc(NC(=O)c4cnn(Cc5ccccc5)c4)c[nH]c3=O)cc2c1 [Example 141, 1-Benzyl-1H-pyrazole-4-carboxylic acid {5-[5-(2-diethylamino-ethoxy)-1H-indol-2-yl]-6-oxo-1,6-dihydro-pyridin-3-yl}-amide] | < 100 nM
22 | CN(C)CCOc1ccc2[nH]c(-c3cc(NC(=O)c4cnn(Cc5ccccc5)c4)c[nH]c3=O)cc2c1 [Example 142, 1-Benzyl-1H-pyrazole-4-carboxylic acid {5-[5-(2-dimethylamino-ethoxy)-1H-indol-2-yl]-6-oxo-1,6-dihydro-pyridin-3-yl}-amide] | < 100 nM
23 | O=C(Nc1c[nH]c(=O)c(-c2cc3cc(OCCCN4CCCCC4)ccc3[nH]2)c1)c1cnn(Cc2ccccc2)c1 [Example 143, 1-Benzyl-1H-pyrazole-4-carboxylic acid {6-oxo-5-[5-(3-piperidin-1-yl-propoxy)-1H-indol-2-yl]-1,6-dihydro-pyridin-3-yl}-amide] | < 100 nM
24 | O=C(Nc1c[nH]c(=O)c(-c2cc3cc(OCCN4CCCC4)ccc3[nH]2)c1)c1cnn(Cc2ccccc2)c1 [Example 144, 1-Benzyl-1H-pyrazole-4carboxylic acid {6-oxo-5-[5-(2-pyrrolidin-1-yl-ethoxy)-1H-indol-2-yl]-1,6-dihydro-pyridin-3-yl}-amide] | < 100 nM
25 | CN(C)CCCOc1ccc2[nH]c(-c3cc(NC(=O)c4cnn(Cc5ccccc5)c4)c[nH]c3=O)cc2c1 [Example 145, 1-Benzyl-1H-pyrazole-4-carboxylic acid {5-[5-(3-dimethylamino-propoxy)-1H-indol-2-yl]-6oxo-1,6-dihydro-pyridin-3-yl}-amide] | < 100 nM
26 | CN1CCN(CCOc2ccc3[nH]c(-c4cc(NC(=O)c5cnn(Cc6ccccc6)c5)c[nH]c4=O)cc3c2)CC1 [Example 146, 1-Benzyl-1H-pyrazole-4-carboxylic acid (5-{5-[2-(4-methyl-piperazin-1-yl)-ethoxy]-1H-indol-2-yl}-6-oxo-1,6-dihydro-pyridin-3-yl)-amide] | < 100 nM
